# Like-named read-outs stand apart in the source and are kept apart here.
# What was measured:
# [1] = target: FGFR1(h) (Homo sapiens, UniProt P11362); assay: Kinase assay, FGFR1(h); format: biochemical; conditions: 1 μM
# Method: (§1) Kinase assay protocols well known to those of ordinary skill in the art were used. Specifically, the buffer composition was as follows: 20 mM MOPS, 1 mM EDTA, 0.01% Brij-35, 5% Glycerol, 0.1% β-mercaptoethanol, 1 mg/mL BSA. Test compounds were initially dissolved in DMSO at the desired concentration, then serially diluted to the kinase assay buffer. In a final reaction volume of 25 μL FGFR1(h) (5-10 mU) and KDR(h) (5-10 mU) are incubated with 8 mM MOPS pH 7.0, 0.2 mM EDTA, 200 μM LRRASLG (Kemptide), 10 mM magnesium acetate and [γ^33P-ATP]. The reaction was initiated by the addition of the MgATP mix. After incubation for 40 minutes at room temperature, the reaction was stopped by addition of 5 μL of a 3% phosphoric acid solution. Ten L of the reaction was then spotted onto a P30 filter mat and washed three times for 5 minutes in 50 mM phosphoric acid and once in methanol prior to drying and scintillation counting. Wells containing substrate but no kinase and wells containing a phosphopeptide control were used to set 0% and 100% phosphorylation value, respectively.
# (§2) Of all of the steps in developing a drug, the hardest is finding promising compounds. (See, e.g., Malo et al., “Statistical practice in high-throughput screening data analysis,” Nature Biotechnology, 2006, 24, 167-75.) Kinase inhibitors often also have an anti-proliferative effect. […] The kinase inhibitory activity Compound 19 was tested using the kinase assay described in Example 3. […] These mutations in the tested kinases are thought to play an important role in transformation of some cancers.
# [2] = test system: Kato III; assay: Inhibition of proliferation (CellTiterblue, 72 hr), Kato III; format: cell-based
# Method: (§3) A number of studies were performed to analyze the consequences of tyrosine kinase inhibition in cell lines. To do this, 1000 cells are seeded in 27 μl/well in 384-well microplates, which are then placed in a humidified CO2 incubator at 37° C. overnight. The next day, 3 μl/well of 10× concentrated drug is added and the plates are returned to the incubator for 72 hr. After 72 hr incubation, plates are removed and 6 μl/well CellTiterblue (Promega) viability reagent is added. Plates are returned to the incubator for 3 hrs, after which fluorescence measurements are read on the Victor X3 plate reader (Perkin Elmer). Data are analyzed using Excel (Microsoft), and GI50 values are determined using Prism (Graphpad).
# [3] = target: KDR(h) (Homo sapiens, UniProt P35968); assay: Kinase assay, KDR(h); format: biochemical
# KDR(h), sequence (P35968 20-1356): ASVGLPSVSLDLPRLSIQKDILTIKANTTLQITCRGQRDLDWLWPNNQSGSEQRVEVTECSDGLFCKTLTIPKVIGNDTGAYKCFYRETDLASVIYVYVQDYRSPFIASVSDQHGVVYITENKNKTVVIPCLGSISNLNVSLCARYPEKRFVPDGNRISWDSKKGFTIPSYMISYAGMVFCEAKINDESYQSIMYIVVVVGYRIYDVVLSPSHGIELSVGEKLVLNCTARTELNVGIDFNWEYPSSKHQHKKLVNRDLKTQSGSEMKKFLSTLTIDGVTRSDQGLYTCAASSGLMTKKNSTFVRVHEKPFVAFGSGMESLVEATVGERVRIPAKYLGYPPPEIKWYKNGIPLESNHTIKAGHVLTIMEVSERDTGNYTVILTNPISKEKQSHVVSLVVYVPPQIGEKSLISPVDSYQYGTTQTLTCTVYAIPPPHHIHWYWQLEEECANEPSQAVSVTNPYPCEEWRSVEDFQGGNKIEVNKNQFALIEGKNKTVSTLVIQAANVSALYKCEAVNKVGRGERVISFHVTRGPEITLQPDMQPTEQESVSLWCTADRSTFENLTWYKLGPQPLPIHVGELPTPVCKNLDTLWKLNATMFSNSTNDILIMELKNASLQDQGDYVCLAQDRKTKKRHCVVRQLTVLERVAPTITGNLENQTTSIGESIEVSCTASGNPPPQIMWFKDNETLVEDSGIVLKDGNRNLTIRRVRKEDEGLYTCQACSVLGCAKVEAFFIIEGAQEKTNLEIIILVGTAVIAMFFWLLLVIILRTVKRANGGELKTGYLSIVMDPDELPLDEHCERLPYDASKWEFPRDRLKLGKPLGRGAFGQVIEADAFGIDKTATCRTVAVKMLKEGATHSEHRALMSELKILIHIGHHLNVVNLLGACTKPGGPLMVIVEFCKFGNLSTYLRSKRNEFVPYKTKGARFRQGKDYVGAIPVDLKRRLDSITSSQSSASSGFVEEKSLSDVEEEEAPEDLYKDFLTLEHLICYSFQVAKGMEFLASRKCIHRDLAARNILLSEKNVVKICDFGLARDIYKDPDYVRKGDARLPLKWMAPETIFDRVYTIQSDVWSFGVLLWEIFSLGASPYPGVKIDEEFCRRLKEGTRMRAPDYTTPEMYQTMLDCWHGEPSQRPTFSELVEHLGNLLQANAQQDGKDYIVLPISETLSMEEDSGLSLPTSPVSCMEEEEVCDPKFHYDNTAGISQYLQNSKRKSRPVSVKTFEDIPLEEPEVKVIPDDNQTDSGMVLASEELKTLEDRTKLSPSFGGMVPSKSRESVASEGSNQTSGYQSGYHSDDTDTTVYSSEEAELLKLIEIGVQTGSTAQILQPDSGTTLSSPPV
# Method: as §1, §2
# [4] = test system: RT112; assay: Inhibition of proliferation (CellTiterblue, 72 hr), RT112; format: cell-based
# Method: as §3
# [5] = test system: SNU16; assay: Inhibition of proliferation (CellTiterblue, 72 hr), SNU16; format: cell-based
# Method: as §3
# [6] = test system: KG1a; assay: Inhibition of proliferation (CellTiterblue, 72 hr), KG1a; format: cell-based, human; conditions: 72 hr
# Method: as §3
# [7] = test system: TG1a Human AML Xenograft; assay: Antitumor efficacy on TG1a human AML xenograft; format: in vivo, mouse; conditions: 20 mg/kg, Qdx10, IP
# Method: In this Example the antitumor activity of compounds 14, 17, 19, 45, and 48 of the current invention are tested using an art-recognized xenograft model of AML. (“T/C” refers to the ratio of the tumor's size in treated animals versus the tumor size in control untreated animals. “BWC” refers to “body weight change”).
# [8] = Metabolic stability, mouse liver microsomes; format: in vitro ADME
# [9] = Metabolic stability, rat liver microsomes; format: in vitro ADME
# [10] = Metabolic stability, human liver microsomes; format: in vitro ADME
# FGFR1(h), sequence (P11362 22-822): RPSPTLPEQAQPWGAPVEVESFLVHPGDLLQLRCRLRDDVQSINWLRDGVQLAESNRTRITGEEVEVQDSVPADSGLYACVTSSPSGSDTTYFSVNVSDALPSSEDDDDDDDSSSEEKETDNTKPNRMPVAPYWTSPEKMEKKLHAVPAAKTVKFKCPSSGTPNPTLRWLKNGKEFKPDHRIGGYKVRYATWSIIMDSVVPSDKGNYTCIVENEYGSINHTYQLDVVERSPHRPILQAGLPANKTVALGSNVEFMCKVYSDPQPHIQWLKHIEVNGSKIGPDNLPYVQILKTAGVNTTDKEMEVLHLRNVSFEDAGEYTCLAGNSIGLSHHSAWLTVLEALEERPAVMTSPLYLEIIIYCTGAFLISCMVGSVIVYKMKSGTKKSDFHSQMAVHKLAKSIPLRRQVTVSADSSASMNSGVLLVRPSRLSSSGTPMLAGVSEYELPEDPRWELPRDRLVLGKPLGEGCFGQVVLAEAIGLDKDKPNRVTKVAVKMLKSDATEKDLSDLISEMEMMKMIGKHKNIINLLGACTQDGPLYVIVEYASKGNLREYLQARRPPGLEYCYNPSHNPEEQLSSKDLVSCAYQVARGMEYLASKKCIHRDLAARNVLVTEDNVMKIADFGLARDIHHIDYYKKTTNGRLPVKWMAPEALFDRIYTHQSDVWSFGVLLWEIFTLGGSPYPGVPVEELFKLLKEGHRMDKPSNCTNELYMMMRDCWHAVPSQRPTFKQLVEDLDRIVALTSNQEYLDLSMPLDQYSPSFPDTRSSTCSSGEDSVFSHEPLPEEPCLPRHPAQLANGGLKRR
Compound,inhibition at 1 µM [1] [%],inhibition at 1 µM [3] [%],"GI50 ([5]; Homo sapiens, SNU-16, 72 h) [nM]",BWC (%) [7] [%],% Inhibition at 1 μM FGFR1(h) [1] [%],% Inhibition at 1 μM KDR(h) ([3]; 1 μM) [%],GI50 [5] [nM],half-life [8] [min],half-life [9] [min],half-life [10] [min],"GI50 ([2]; Homo sapiens, KATO III, 72 h) [nM]","GI50 ([4]; Homo sapiens, RT-112, 72 h) [nM]","GI50 ([6]; Homo sapiens, KG-1a) [nM]",T/C (%) (day14) [7],GI50 [4] [nM],GI50 [2] [nM],GI50 [6] [nM]
Cc1cc2c(F)c(Oc3ncnc(Nc4ccc(N5CCNCC5)cc4)c3C#N)cc(F)c2[nH]1 [Compound 14],99,93,23,−4.0,,,,,,,137,76,1.6,−60.6,,,
Cc1cc2c(F)c(Oc3ncnc(Nc4ccc(N5C[C@@H](C)N[C@@H](C)C5)cc4)c3C#N)ccc2[nH]1 [Compound 17],100,96,20,−5.7,,,,,,,113,83,0.74,−79.5,,,
Cc1cc2c(F)c(Oc3ncnc(Nc4ccc(N5CCN[C@@H](C)C5)cc4)c3C#N)cc(F)c2[nH]1 [Compound 33],101,89,12,,,,,,,,88,,0.28,,126,,
Cc1cc2c(F)c(Oc3ncnc(Nc4ccc(N5CCN[C@@H](C)C5)cc4)c3C#N)cc(F)c2[nH]1 [Compound 34],,,,,100,89,22,,,,,,,,52,98,0.28
Cc1cc2c(F)c(Oc3ncnc(Nc4ccc(N5C[C@@H](C)N(C)[C@@H](C)C5)cc4)c3C#N)cc(F)c2[nH]1 [Compound 45],101,73,15,−11.7,,,,,,,79,37,0.43,4.9,,,
Cc1cc2c(F)c(Oc3ncnc(Nc4ccc(N5CCN(C)C(C)C5)cc4)c3C#N)cc(F)c2[nH]1 (centres unmarked) [Compound 46],101,90,22,,,,,,,,111,48,1.37,,,,
CCN1[C@H](C)CN(c2ccc(Nc3ncnc(Oc4cc(F)c5[nH]c(C)cc5c4F)c3C#N)cc2)C[C@@H]1C [Compound 47],101,74,22,,,,,,,,123,48,0.5,,,,

# More lines, main results first:
inhibition at 1 µM [1] [%],inhibition at 1 µM [3] [%],"GI50 ([5]; Homo sapiens, SNU-16, 72 h) [nM]",BWC (%) [7] [%],% Inhibition at 1 μM FGFR1(h) [1] [%],% Inhibition at 1 μM KDR(h) ([3]; 1 μM) [%],GI50 [5] [nM],half-life [8] [min],half-life [9] [min],half-life [10] [min],Compound,"GI50 ([2]; Homo sapiens, KATO III, 72 h) [nM]","GI50 ([4]; Homo sapiens, RT-112, 72 h) [nM]","GI50 ([6]; Homo sapiens, KG-1a) [nM]",T/C (%) (day14) [7],GI50 [4] [nM],GI50 [2] [nM],GI50 [6] [nM]
100,84,35,−3.8,,,,,,,CCN1CCN(c2ccc(Nc3ncnc(Oc4cc(F)c5[nH]c(C)cc5c4F)c3C#N)cc2)CC1C (centres unmarked) [Compound 48],152,57,0.55,−72.8,,,
101,82,24,,,,,,,,Cc1cc2c(F)c(Oc3ncnc(Nc4ccc(N5[C@H](C)CNC[C@@H]5C)cc4)c3C#N)cc(F)c2[nH]1 [Compound 49],86,48,0.6,,,,
101,88,52,,,,,,,,Cc1cc2c(F)c(Oc3ncnc(Nc4ccc(N5CCN6CCCC6C5)cc4)c3C#N)cc(F)c2[nH]1 (centres unmarked) [Compound 50],174,49,2.91,,,,
101,80,66,,,,,,,,Cc1cc2c(F)c(Oc3ncnc(Nc4ccc(N5CCN6CCCCC6C5)cc4)c3C#N)cc(F)c2[nH]1 (centres unmarked) [Compound 51],208,73,1.62,,,,
100,93,28,,,,,,,,C=CC(=O)Nc1cccc(Nc2ncnc(Oc3cc(F)c4[nH]c(C)cc4c3F)c2C#N)c1 [Compound 53],152,94,3.59,,,,
101,94,24,,,,,,,,C=CC(=O)Nc1ccc(Nc2ncnc(Oc3cc(F)c4[nH]c(C)cc4c3F)c2C#N)cc1 [Compound 56],106,134,5.59,,,,
,,,,,,,9.2,11.9,7.5,"Cc1nc(Nc2ncc(C(=O)Nc3c(C)cccc3Cl)s2)cc(N2CCN(CCO)CC2)n1 [DASATINIB, dasatinib, reference compound]",,,,,,,

# — patent US20180215734A1, “PYRIMIDINE DERIVATIVES AS KINASE INHIBITORS AND THEIR THERAPEUTICAL APPLICATIONS” (NantBioScience, Inc., priority 2016, published 2018)
